Experimental data: patent US20040014689A1, “Endoparaciticidal and ectoparasiticidal agents” (priority 1996, published 2004)

Tests used:
[1] = test system: Nematospiroides dubius; assay: Use Example C: in vivo nematode test, Nematospiroides dubius in mice; conditions: oral
Protocol: Nematospiroides dubius in Mice
Mice were experimentally infected with nematodes of the species Nematospiroides dubius. Specifically, the mice were administered Nematospiroides dubius orally as 60 filariform larvae.
After the prepatency period had expired, the suspended active compounds of Example 2 were administered orally on day 12 after the infection.
(§1) Determination of the Activity:
The mice are selected on day 20 after the infection. The adult parasites in the Duodenum are counted by means of a compressorium. The success of treatment in the dose group is compared to the untreated control group.

[2] = test system: Heterakis spumosa; assay: Example D: in vivo nematode test, Heterakis spumosa in mice; conditions: oral
Protocol: Heterakis spumosa in Mice
Mice were experimentally infected with nematodes of the species Heterakis spumosa. Specifically, the mice were administered Heterakis spumosa orally as 90 embryonate eggs.
After the prepatency period had expired, the suspended active compounds of Example 2 were administered orally on day 46 after the infection.
as §1
The mice are selected on day 54 after the infection. The adult parasites are counted in the colon and caecum using a microscope. The success of treatment in the dose group is compared to the untreated control group.

[3] = ivermectin B1a/B1b 0.1 mg/kg alone

Compound	Reduction rate [%] [1, 3]	Reduction rate [%] [2, 3]	Reduction rate [%] ([1]; imidacloprid 25.0 mg/kg alone)	Reduction rate [%] ([1]; imidacloprid 50.0 mg/kg alone)	Reduction rate [%] ([2]; imidacloprid 5.0 mg/kg alone)	Reduction rate [%] ([2]; imidacloprid 10.0 mg/kg alone)	Reduction rate [%] ([2]; imidacloprid 25.0 mg/kg alone)	Reduction rate [%] ([2]; imidacloprid 50.0 mg/kg alone)
22,23-Dihydroavermectin B1a/B1b [Ivermectin B1a/B1b]	0%	<50%	–	–	–	–	–	–
O=[N+]([O-])NC1=NCCN1Cc1ccc(Cl)nc1 [Imidacloprid, 1-[(6-chloro-3-pyridinyl)methyl]-N-nitro-2-imidazolidinium]	–	–	0%	0%	0%	0%	0%	0%
